Test results from patent US10660908B2, “Pharmaceutical spray composition comprising a vitamin D analogue and a corticosteroid” (LEO Pharma A/S, priority 2010, dated 2020).
Entries after “also recorded” stand apart in the source; their conditions may differ.

Legend:
[1] = Solubility of calcipotriol and BDP in different propellant mixtures (Example 1); assay type: physicochemical; settings: for dissolution in propellant: 100% DME as the propellant; for dissolution in propellant mixture: ratio of butane to DME of 4:3, in both the propellant and vehicle phases, 67 mg BDP, 13 mg calcipotriol, 20 g vehicle
Method: 2×12 100 ml glass bottles fitted with a valve and actuator were filled with compositions containing 67 mg BDP, 13 mg calcipotriol, 20 g vehicle (comprising liquid paraffin, white soft paraffin and PPG-15-stearyl ether) and varying amounts of DME and butane as shown in Table 1. The composition formed a continuous phase and a dispersed phase presumed to be composed of long-chain alkanes (with ≥50 carbon atoms in the chain) present in the white soft paraffin. The dispersed phase sedimented in the bottom portion of the composition on standing. Thus, the top portion of the composition contained only the continuous phase, while the bottom portion of the composition was composed of a mixture of continuous and dispersed phases.
The sprayed samples were placed on a water bath at 40° C. for 5 hours until the propellant had evaporated. The samples were then cooled for 1 hour at room temperature.
Column: Agilent Zorbas Eclipse Plus C18, 150×4.6 mm, 3.5 μm
Mobile phase: acetonitrile/methanol/0.01M (NH4)2HPO4, pH 6.0, 25:45:30 (v/v/v)
Detection: […]. Calculation at 264 nm for calcipotriol and 240 nm for BDP

[2] = Physical stability by polarized light microscopy (Example 1); assay type: physicochemical; settings: compositions left to stand for 4 months
Method: The physical stability of calcipotriol and BDP in the composition was determined by polarized light microscopy.

[3] = Chemical stability of calcipotriol/BDP in the presence of different inner lacquers (Example 6); assay type: physicochemical
Method: Batches of Composition A prepared as described in Example 2 and placed in aluminium spray containers provided with two different types of inner lacquer, an epoxyphenol based lacquer (HOBA 7940/7407) and a polyimide-polyamide based lacquer (HOBA 8460), respectively, were tested for chemical stability of the active ingredients after standing for 1 month at 40° C. by spraying samples of each batch into a glass and subjecting them to HPLC by the procedure described in Example 3.

[4] = Chemical stability of calcipotriol/BDP in the presence of different gasket materials (Example 8); assay type: physicochemical
Method: In order to test the compatibility of the composition with various gasket materials, samples were prepared with Composition E, see Example 2, filled in aluminum spray containers with a polyamide-polyimide inner lacquer and closed with a valve cup crimped to the container body. To each container, 10 pieces or an equivalent amount of gasket test material were added to the spray container and allowed to be submerged in the composition. The containers were stored at 25° C. or 40° C. and tested after 1 and 3 months at 40° C., and after 3 months at 25° C.
After storage, the composition was sprayed out in a glass bottle, and the propellants were allowed to evaporate for 2 days. The non-volatile part of the composition was analyzed for calcipotriol, betamethasone dipropionate and their related organic impurities.
The amount of calcipotriol was determined by HPLC after liquid extraction followed by a controlled isomerization at 50° C. Methyl testosterone was used as the internal standard. The following conditions were used for the HPLC analysis:
Column: LiChrospher RP-18, 125×4 mm, 5 μm
Mobile phase: Acetonitrile/methanol/0.01M (NH4)2PO4 (20:50:30)
Run time: Approx. 9 minutes
The organic impurities related to calcipotriol were determined by HPLC after liquid extraction, using the following conditions:
Column: YMC ODS-AM, 150×4.6 mm, 3 μm
Run time: 2 times the retention time of calcipotriol
The amount of betamethasone dipropionate was determined by HPLC after liquid extraction, using beclomethasone dipropionate as internal standard and the following HPLC conditions:
Column: Superspher RP-18, 75×4 mm, 4 μm
Mobile phase: Acetonitrile/water (50:55)
The organic impurities related to betamethasone dipropionate were extracted by liquid extraction and analyzed by HPLC using the following conditions:
Mobile phase: Acetonitrile/0.05M (NH4)2PO4 pH 7 (50:55)
Run time: Approx. 20 minutes

[5] = one study, M. Hannuksela et al., Contact Dermatitis 1, 1975; cited from earlier work
[6] = Composition E in contact with Buna and NPR gaskets
[7] = Composition E in contact with Viton and EPDM gaskets

CCC(=O)OCC(=O)[C@@]1(OC(=O)CC)[C@@H](C)C[C@H]2[C@@H]3CCC4=CC(=O)C=C[C@]4(C)[C@@]3(F)[C@@H](O)C[C@@]21C [betamethasone dipropionate]
dissolution in propellant [1]: completely dissolved
dissolution in propellant mixture [1]: completely dissolved
physical stability (recrystallization) [2]: neither calcipotriol or BDP recrystallize
chemical stability: effect of the composition of the inner lacquers ([3]; epoxyphenol vs polyimide-polyamide lacquer): much less affected
stability (in words) [4, 6]: decomposition
stability (in words) [4, 7]: did not have negative impact

CC(O)CO (centres unmarked) [propylene glycol]
number of irritant reactions [5]: 12.5%

C=C1/C(=C\C=C2/CCC[C@]3(C)[C@@H]([C@H](C)/C=C/[C@@H](O)C4CC4)CC[C@@H]23)C[C@@H](O)C[C@@H]1O [calcipotriol, Calcipotriol]
dissolution in propellant [1]: completely dissolved
dissolution in propellant mixture [1]: completely dissolved
physical stability (recrystallization) [2]: neither calcipotriol or BDP recrystallize
chemical stability (in words) ([3]; epoxyphenol based inner lacquer of the spray container): unacceptably degraded; also recorded: unacceptable chemical degradation
chemical stability (in words) ([3]; polyimide-polyamide based inner lacquer): acceptable; also recorded: satisfactory
stability (in words) [4, 6]: decomposition
stability (in words) [4, 7]: did not have negative impact
